Test results: article PMC3598812, “Evaluation of Anti-Hyperalgesic and Analgesic Effects of Two Benzodiazepines in Human Experimental Pain: A Randomized Placebo-Controlled Study” (PLoS ONE, 2013)
Entries after “also recorded” stand apart in the source; their conditions may differ.

Assays:
healthy male volunteers [1] = experiment: Cutaneous single electrical stimulation pain threshold; type: in vivo, human; conditions: mean (SD)
Procedure: (§1) Electrical stimulation was performed through electrodes placed distal to the lateral malleolus. A 25 ms, train-of-five, 1 ms, square-wave impulse (perceived as one stimulus), was delivered by a computer-controlled constant current stimulator (Digitimer DS7A, Neurospec, Letchworth Garden City, UK). The current intensity was increased from 1 mA in steps of 0.5 mA until a pain sensation was evoked.
(§2) Three assessments were made and the mean of these 3 measurements was used for the data analysis.

healthy male volunteers [2] = experiment: Pain rating (VAS) after graded von Frey hair stimulation in the capsaicin hyperalgesic area; type: in vivo, human
Procedure: Additionally, mechanical pain sensitivity was assessed using a set of seven weighted pinprick stimuli to obtain a stimulus-response function. The test was applied 1 cm inside the outer border of the pinprick hyperalgesic area, using a set of 7 graded von Frey hair mechanical stimulators with fixed stimulus intensities (custom-made at Aalborg University, Denmark). The flat contact area of the stimulators has a 0.2 mm diameter, and the 7 stimulators exert forces of 8, 16, 32, 64, 128, 256 and 512 mN. The order of stimulation was defined randomly by computer. The stimulators were applied at a rate of 2 s on/2 s off. Subjects were asked to give a pain rating for each stimulus on a 10 cm VAS. Two assessments for each stimulation were made and the mean of these 2 measurements was used for the data analysis.

healthy male volunteers [3] = experiment: Cuff algometry (tourniquet cuff on the leg, VAS-time AUC); type: in vivo, human; set-up: AUC of VAS during cuff algometry: unit not given beside the values; conditions: for AUC of VAS during cuff algometry: mean (SD)
Source text: A tourniquet cuff was applied to the middle of the leg, at the level of the heads of the gastrocnemius and soleus muscle. The cuff was applied at the side contralateral to the side of electrical stimulation in order not to interfere with the positioning of the intramuscular electrodes. During stimulation, the volunteer rated the pain intensity on an electronic VAS scale. The cuff was inflated with compressed air until VAS 6 was reached. The maximum allowed inflating pressure was 200 kPa. The pressure was maintained for 10 min or until the subjects rated the pain as intolerable. The area under the curve VAS-time was computed. For those subjects who felt intolerable pain before 10 min, the time when the cuff was deflated was recorded and VAS 10 was extrapolated until 10 min. Additionally, the maximal VAS during inflation was recorded.

healthy male volunteers [4] = experiment: Intramuscular single electrical stimulation pain threshold (tibialis anterior); type: in vivo, human; conditions: mean (SD)
Procedure: as §1
(§3) A needle was placed in the tibialis anterior muscle, 14 cm distal from the caudal end of the patella and 20 mm in depth. The same single and repeated stimulation patterns and the same procedure described for cutaneous stimulation were used.

healthy male volunteers [5] = experiment: Intramuscular repeated (20 stimuli) electrical stimulation, VAS; type: in vivo, human; set-up: AUC of VAS during 20 intramuscular electrical stimuli: unit not given beside the values; conditions: mean (SD); for Maximal VAS during 20 intramuscular electrical stimuli: VAS 0-10
Procedure: The stimulus burst used for single stimulus was repeated for a train of 20 pulses at 2 Hz, at an intensity corresponding to the temporal summation threshold. During this 10 s stimulation, pain intensity was continuously rated by the subject with an electronic VAS, and the area under the curve (AUC) was computed. Additionally, the maximal VAS during stimulation was recorded.
as §3

healthy male volunteers [6] = experiment: Cutaneous repeated (5 stimuli) electrical stimulation, temporal summation threshold; type: in vivo, human; conditions: mean (SD)
Source text: (§4) The stimulus burst used for single stimulus was repeated 5 times at 2 Hz, at constant intensity. The current intensity of the 5 stimuli was increased from 1 mA in steps of 0.5 mA until the subjects felt pain during the last 2–3 of the 5 stimuli (indicating temporal summation).
as §2

patients / volunteers = conditions: cited from earlier work
healthy male volunteers [7] = experiment: Area of dynamic mechanical hyperalgesia after intradermal capsaicin (cotton wool stroking); type: in vivo, human; conditions: single oral dose (clobazam 20 mg, clonazepam 1 mg, tolterodine 1 mg), mean (SD)
Procedure: The area of dynamic mechanical hyperalgesia was determined by gently stroking a hand-held cotton wool tip on a 1 cm strip of the skin, at a rate of approximately 1 cm/s. Subjects were asked to report when the sensation changed from a non-painful to a painful sensation. The borders of dynamic hyperalgesia were delineated similarly to the determination of static hyperalgesia.

healthy male volunteers [8] = experiment: Intramuscular repeated (5 stimuli) electrical stimulation pain threshold; type: in vivo, human; conditions: for Pain threshold after 5 intramuscular electrical stimuli: mean (SD)
Source text: as §4, §3

[9] = baseline before medication, per drug session
[10] = single oral dose (clobazam 20 mg, clonazepam 1 mg, tolterodine 1 mg), 30 min after medication
[11] = single oral dose (clobazam 20 mg, clonazepam 1 mg, tolterodine 1 mg), 60 min after medication
[12] = single oral dose (clobazam 20 mg, clonazepam 1 mg, tolterodine 1 mg), 90 min after medication
[13] = single oral dose (clobazam 20 mg, clonazepam 1 mg, tolterodine 1 mg), 120 min after medication
[14] = single oral dose (clobazam 20 mg, clonazepam 1 mg, tolterodine 1 mg), after flumazenil 0.2 mg iv
[15] = VAS 0-10, single oral dose (clobazam 20 mg, clonazepam 1 mg, tolterodine 1 mg), 30 min after medication, mean (SD)
[16] = VAS 0-10, single oral dose (clobazam 20 mg, clonazepam 1 mg, tolterodine 1 mg), 60 min after medication, mean (SD)
[17] = VAS 0-10, single oral dose (clobazam 20 mg, clonazepam 1 mg, tolterodine 1 mg), 90 min after medication, mean (SD)
[18] = VAS 0-10, single oral dose (clobazam 20 mg, clonazepam 1 mg, tolterodine 1 mg), 120 min after medication, mean (SD)
[19] = VAS 0-10, single oral dose (clobazam 20 mg, clonazepam 1 mg, tolterodine 1 mg), after flumazenil 0.2 mg iv, mean (SD)
[20] = placebo-controlled, double-blind trial, 114 outpatients with anxiety, mean doses 59 mg clobazam daily, 25 mg diazepam daily, ref Micromedex 2009

## CN1C(=O)CC(=O)N(c2ccccc2)c2cc(Cl)ccc21 [Clobazam]
Healthy male volunteers [1]; [9]
  Pain threshold after single cutaneous electrical stimulation: 10.0 (2.9) mA
Healthy male volunteers [1]; [10]
  Pain threshold after single cutaneous electrical stimulation: 10.3 (3.6) mA
Healthy male volunteers [1]; [11]
  Pain threshold after single cutaneous electrical stimulation: 10.2 (3.8) mA
Healthy male volunteers [1]; [12]
  Pain threshold after single cutaneous electrical stimulation: 11.2 (3.3) mA
Healthy male volunteers [1]; [13]
  Pain threshold after single cutaneous electrical stimulation: 12.2 (3.9) mA
Healthy male volunteers [1]; [14]
  Pain threshold after single cutaneous electrical stimulation: 12.0 (4.3) mA
Healthy male volunteers [2]; [15]
  VAS after von Frey hair 8 mN: 1.1 (1.2)
  VAS after von Frey hair 16 mN: 2.0 (2.1)
  VAS after von Frey hair 32 mN: 2.0 (1.6)
  VAS after von Frey hair 64 mN: 2.3 (2.0)
  VAS after von Frey hair 128 mN: 2.9 (2.0)
  VAS after von Frey hair 256 mN: 3.3(2.3)
  VAS after von Frey hair 512 mN: 4.5 (2.5)
Healthy male volunteers [2]; [16]
  VAS after von Frey hair 8 mN: 1.9 (3.3)
  VAS after von Frey hair 16 mN: 2.3 (3.2)
  VAS after von Frey hair 32 mN: 2.4 (2.8)
  VAS after von Frey hair 64 mN: 2.5 (2.0)
  VAS after von Frey hair 128 mN: 3.4 (2.7)
  VAS after von Frey hair 256 mN: 3.7 (2.6)
  VAS after von Frey hair 512 mN: 4.8 (2.8)
Healthy male volunteers [2]; [17]
  VAS after von Frey hair 8 mN: 1.2 (1.4)
  VAS after von Frey hair 16 mN: 1.4 (1.6)
  VAS after von Frey hair 32 mN: 2.1 (2.2)
  VAS after von Frey hair 64 mN: 2.1 (1.9)
  VAS after von Frey hair 128 mN: 3.5 (2.3)
  VAS after von Frey hair 256 mN: 3.9 (2.5)
  VAS after von Frey hair 512 mN: 4.9 (2.6)
Healthy male volunteers [2]; [18]
  VAS after von Frey hair 8 mN: 1.3 (1.4)
  VAS after von Frey hair 16 mN: 1.3 (1.5)
  VAS after von Frey hair 32 mN: 1.9 (1.9)
  VAS after von Frey hair 64 mN: 2.7 (2.7)
  VAS after von Frey hair 128 mN: 3.0 (2.6)
  VAS after von Frey hair 256 mN: 3.8 (2.6)
  VAS after von Frey hair 512 mN: 4.7 (2.7)
Healthy male volunteers [2]; [19]
  VAS after von Frey hair 8 mN: 1.1 (1.1)
  VAS after von Frey hair 16 mN: 1.3 (1.1)
  VAS after von Frey hair 32 mN: 1.9 (1.9)
  VAS after von Frey hair 64 mN: 2.2 (1.7)
  VAS after von Frey hair 128 mN: 2.9 (2.1)
  VAS after von Frey hair 256 mN: 3.9 (2.2)
  VAS after von Frey hair 512 mN: 5.1 (2.5)
Healthy male volunteers [2]; subgroup analysis (n = 8), 30 minutes, mean
  VAS after von Frey hair 512 mN: 3.2
Healthy male volunteers [2]; subgroup analysis (n = 8), 120 minutes, mean
  VAS after von Frey hair 512 mN: 5.1
Healthy male volunteers [3]; [9]
  AUC of VAS during cuff algometry: 3446 (539)
Healthy male volunteers [3]; overview table, compared to tolterodine
  Cuff algometry, overview of peak value or subgroup analysis: Time factor significant, favouring clobazam and clonazepam compared to tolterodine
Healthy male volunteers [3]; [13]
  AUC of VAS during cuff algometry: 3001 (831)
Healthy male volunteers [3]; [14]
  AUC of VAS during cuff algometry: 2932 (566)
Healthy male volunteers [4]; [9]
  Pain threshold after single intramuscular electrical stimulation: 1.7 (1.2) mA
Healthy male volunteers [4]; [13]
  Pain threshold after single intramuscular electrical stimulation: 3.1 (4.6) mA
Healthy male volunteers [4]; [14]
  Pain threshold after single intramuscular electrical stimulation: 2.5 (2.1) mA
Healthy male volunteers [5]; [9]
  Maximal VAS during 20 intramuscular electrical stimuli: 4.2 (1.5)
  AUC of VAS during 20 intramuscular electrical stimuli: 284 (149)
Healthy male volunteers [5]; [13]
  Maximal VAS during 20 intramuscular electrical stimuli: 4.5 (2.5)
  AUC of VAS during 20 intramuscular electrical stimuli: 309 (188)
Healthy male volunteers [5]; [14]
  Maximal VAS during 20 intramuscular electrical stimuli: 4.0 (1.9)
  AUC of VAS during 20 intramuscular electrical stimuli: 292 (169)
Healthy male volunteers [6]; [9]
  Pain threshold after 5 cutaneous electrical stimuli: 8.3 (3.0) mA
Healthy male volunteers [6]; [10]
  Pain threshold after 5 cutaneous electrical stimuli: 8.7 (3.4) mA
Healthy male volunteers [6]; [11]
  Pain threshold after 5 cutaneous electrical stimuli: 8.7 (3.4) mA
Healthy male volunteers [6]; [12]
  Pain threshold after 5 cutaneous electrical stimuli: 9.3 (2.9) mA
Healthy male volunteers [6]; [13]
  Pain threshold after 5 cutaneous electrical stimuli: 9.9 (3.3) mA
Healthy male volunteers [6]; [14]
  Pain threshold after 5 cutaneous electrical stimuli: 9.7 (3.3) mA
Patients / volunteers; 20 mg clobazam, unlike 2 mg clonazepam
  Effect on cognitive and psychomotor functions: did not affect significantly
Patients / volunteers; 20 mg of clobazam
  Sedation compared with 1 mg of clonazepam: less sedative
Patients / volunteers; [20]
  Dizziness, share of treated patients: 2%
  Sedation, share of treated patients: 38%
Healthy male volunteers [7]; 30 min after medication
  Area of dynamic hyperalgesia: 22.3 (13.2) cm^2
Healthy male volunteers [7]; 60 min after medication
  Area of dynamic hyperalgesia: 22.9 (12.4) cm^2
Healthy male volunteers [7]; 90 min after medication
  Area of dynamic hyperalgesia: 22.4 (13.6) cm^2
Healthy male volunteers [7]; 120 min after medication
  Area of dynamic hyperalgesia: 16.7 (13.0) cm^2
Healthy male volunteers [7]; after flumazenil 0.2 mg iv
  Area of dynamic hyperalgesia: 21.3 (14.6) cm^2
Healthy male volunteers [8]; [9]
  Pain threshold after 5 intramuscular electrical stimuli: 1.4 (1.1) mA
Healthy male volunteers [8]; main analysis, pairwise multiple comparison
  Change in pain threshold after 5 intramuscular electrical stimuli between baseline and 120 minutes: statistically significant increase; also recorded: Significant increase in pain thresholds
Healthy male volunteers [8]; peak value analysis, pairwise comparisons within each drug
  Change in pain detection threshold after 5 intramuscular electrical stimuli from baseline to peak value: significant increase; also recorded: Consistent for an increase in pain thresholds after clobazam and clonazepam
Healthy male volunteers [8]; [13]
  Pain threshold after 5 intramuscular electrical stimuli: 2.1 (2.2) mA
Healthy male volunteers [8]; [14]
  Pain threshold after 5 intramuscular electrical stimuli: 2.2 (2.0) mA
